Measured values: US20230270713A1, “Administration of Resiniferatoxin For Treatment of Bladder Pain or Bladder Cancer” (Sorrento Therapeutics, Inc., priority 2020, published 2023)
Where “and” joins values, the source holds several entries; their conditions need not be identical. Identical values can stand only once. Like-named read-outs stand apart in the source and are kept apart here.

Test: Pharmacokinetic/toxicokinetic profile of RTX after intravesical instillation in dogs
Type: in vivo, dog
Method: Local tolerance and the pharmacokinetic (PK), and toxicokinetic (TK) profile of RTX in dogs was determined after a single instillation of RTX into the bladder of dogs (n=6). The RTX formulations were prepared using aseptic techniques in a biological safety cabinet (BSC) by mixing the appropriate amount of diluent with the appropriate amount of RTX. Dosing formulation concentrations used were 1 and 10 mcg/mL.
Three male and three female dogs ranging in weight from 5.95 to 8.60 kg were used in the study. The dogs were assigned into Group 1 (receiving a dose of 1 mcg/mL RTX) or Group 2 (receiving a dose of 10 mcg/mL RTX) as shown in the Table 3 below.
RTX was administered via intravesical instillation into the urinary bladder. The animals were given a single dose of 25 or 250 mcg/dose in a total volume of 25 mL on Day 1 over a period of 1 hour (±5 minutes). RTX and diluent were administered to the dogs under general anesthesia via a Foley catheter placed into the bladder for 1 hour (±5 minutes).
Blood samples were collected from all animals on Day 1 pre-dose and at 0.5, 1, 2, 4, 6, 12, 24, 36, 48, 60, and 72 hours post-dose. The toxicokinetic (TK) parameters were determined for RTX, and if appropriate, the metabolites, from mean concentration-time data.
Cmax is the observed maximum plasma concentration from the start of dosing. Tmax is the time to reach the Cmax. AUC(0-T) is the area under the plasma concentration-time curve from time zero to the last measurable time point calculated by the linear trapezoidal rule.

[1] = male dogs 1003, 1005 individual, 250 mcg intravesical
[2] = male dogs, 250 mcg intravesical

With C=C(C)[C@]12C[C@@H](C)[C@@]34O[C@](Cc5ccccc5)(O[C@@H]1[C@@H]3C=C(COC(=O)Cc1ccc(O)c(OC)c1)C[C@]1(O)C(=O)C(C)=C[C@@H]41)O2 [RTX, resiniferatoxin] the “time by which RTX plasma concentrations fell to zero” value (male and female dogs, 250 mcg, post-dose) was ≤ 4 h, the “absorption into the systemic circulation” value (male and female dogs, single 250 mcg intravesical instillation) was “absorbed rapidly” and the “Plasma concentration of RTX” value (male dog 1001, 25 mcg intravesical, 0.5 h) was “BQL (*BQL—Below quantifiable limit (<50.0 pg/mL); adequate signal-to-noise enabled reporting value as estimate)”. The “Plasma concentration of RTX” value (male dog 1001, 25 mcg intravesical, 2 h) was “BQL (*BQL—Below quantifiable limit (<50.0 pg/mL); adequate signal-to-noise enabled reporting value as estimate)”, the “Plasma concentration of RTX” value (male dog 1001, 25 mcg intravesical, 4 h) was “BQL (*BQL—Below quantifiable limit (<50.0 pg/mL); adequate signal-to-noise enabled reporting value as estimate)” and the “Plasma concentration of RTX” value (male dog 1001, 25 mcg intravesical, 6 h) was “BQL (*BQL—Below quantifiable limit (<50.0 pg/mL); adequate signal-to-noise enabled reporting value as estimate)”. For the same compound, the “Plasma concentration of RTX” value (male dog 1001, 25 mcg intravesical, 12 h) was “BQL (*BQL—Below quantifiable limit (<50.0 pg/mL); adequate signal-to-noise enabled reporting value as estimate)”, the “Plasma concentration of RTX” value (male dog 1001, 25 mcg intravesical, 24 h) was “BQL (*BQL—Below quantifiable limit (<50.0 pg/mL); adequate signal-to-noise enabled reporting value as estimate)” and the “Plasma concentration of RTX” value (male dog 1001, 25 mcg intravesical, 36 h) was “BQL (*BQL—Below quantifiable limit (<50.0 pg/mL); adequate signal-to-noise enabled reporting value as estimate)”. For the same compound, the “Plasma concentration of RTX” value (male dog 1001, 25 mcg intravesical, 48 h) was “BQL (*BQL—Below quantifiable limit (<50.0 pg/mL); adequate signal-to-noise enabled reporting value as estimate)”, the “Plasma concentration of RTX” value (male dog 1001, 25 mcg intravesical, 60 h) was “BQL (*BQL—Below quantifiable limit (<50.0 pg/mL); adequate signal-to-noise enabled reporting value as estimate)” and the “Plasma concentration of RTX” value (male dog 1001, 25 mcg intravesical, 72 h) was “BQL (*BQL—Below quantifiable limit (<50.0 pg/mL); adequate signal-to-noise enabled reporting value as estimate)”. The “Plasma concentration of RTX” value (male dog 1001, 25 mcg intravesical, Predose) was “BQL (*BQL—Below quantifiable limit (<50.0 pg/mL); adequate signal-to-noise enabled reporting value as estimate)”, the “AUC(0-T)” value [1] was 0.365 ng·h/mL and the “AUC(0-T)/Dose” value [1] was 1.42 pg·h/mL/µg and 1.46 pg·h/mL/µg. The Cmax [1] was 0.44 ng/mL, the Cmax/Dose [1] was 1.06 pg/mL/µg and 1.76 pg/mL/µg and the “Plasma concentration of RTX” value (male dogs 1003, 1005 individual, 250 mcg intravesical, 0.5 h) was 0.44 ng/mL. The “Plasma concentration of RTX” value (male dogs 1003, 1005 individual, 250 mcg intravesical, 1 h) was 0.151 ng/mL, the “Plasma concentration of RTX” value (male dogs 1003, 1005 individual, 250 mcg intravesical, 2 h) was 0.0633 ng/mL and the “Plasma concentration of RTX” value (male dogs 1003, 1005 individual, 250 mcg intravesical, 4 h) was 0 ng/mL. For the same compound, the “Plasma concentration of RTX” value (male dogs 1003, 1005 individual, 250 mcg intravesical, 6 h) was 0 ng/mL, the “Plasma concentration of RTX” value (male dogs 1003, 1005 individual, 250 mcg intravesical, 12 h) was 0 ng/mL and the “Plasma concentration of RTX” value (male dogs 1003, 1005 individual, 250 mcg intravesical, 24 h) was 0 ng/mL. For the same compound, the “Plasma concentration of RTX” value (male dogs 1003, 1005 individual, 250 mcg intravesical, 36 h) was 0 ng/mL, the “Plasma concentration of RTX” value (male dogs 1003, 1005 individual, 250 mcg intravesical, 48 h) was 0 ng/mL and the “Plasma concentration of RTX” value (male dogs 1003, 1005 individual, 250 mcg intravesical, 60 h) was 0 ng/mL. For the same compound, the “Plasma concentration of RTX” value (male dogs 1003, 1005 individual, 250 mcg intravesical, 72 h) was 0 ng/mL, the “Plasma concentration of RTX” value (male dogs 1003, 1005 individual, 250 mcg intravesical, Predose) was 0 ng/mL and the “AUC(0-T)/Dose, Mean” value [2] was 1.44 pg·h/mL/µg. For the same compound, the “Cmax/Dose, Mean” value [2] was 1.41 pg/mL/µg, the “Plasma concentration of RTX, Mean” value (male dogs, 250 mcg intravesical, Predose) was 0 ng/mL and the AUC(0-t) (male, dog, plasma, 250 ug, male dogs 1003, 1005 individual, 250 mcg intravesical, read-out: AUC(0-T)) was 0.356 ng·h/mL. The Cmax (male, dog, plasma, 250 ug, male dogs 1003, 1005 individual, 250 mcg intravesical, read-out: Cmax) was 0.264 ng/mL, the Tmax (male, dog, plasma, 250 ug, male dogs 1003, 1005 individual, 250 mcg intravesical, read-out: Tmax) was 60 min and the AUC(0-t) (male, dog, plasma, 250 ug, male dogs, 250 mcg intravesical, read-out: AUC(0-T), Mean) was 0.361 ± 0.00636 ng·h/mL. The Cmax (male, dog, plasma, 250 ug, male dogs, 250 mcg intravesical, read-out: Cmax, Mean) was 0.352 ± 0.124 ng/mL, the Tmax (male, dog, plasma, 250 ug, male dogs, 250 mcg intravesical, read-out: Tmax, Mean) was 45 ± 21.2 min and the Tmax (male, dog, plasma, other: intravesical instillation, 250 ug, male dogs, 250 mcg intravesical, read-out: Tmax, Mean) was 45 min. It also gave a concentration at 1 h (male, dog, plasma, other: intravesical instillation, 25 mcg, male dog 1001, 25 mcg intravesical, 1 h, read-out: Plasma concentration of RTX) of 0.0155 ng/mL, a concentration at 0.5 h (male, dog, plasma, other: intravesical instillation, 250 mcg, male dogs 1003, 1005 individual, 250 mcg intravesical, 0.5 h, read-out: Plasma concentration of RTX) of 0.257 ng/mL and a concentration at 1 h (male, dog, plasma, other: intravesical instillation, 250 mcg, male dogs 1003, 1005 individual, 250 mcg intravesical, 1 h, read-out: Plasma concentration of RTX) of 0.264 ng/mL. It also gave a concentration at 2 h (male, dog, plasma, other: intravesical instillation, 250 mcg, male dogs 1003, 1005 individual, 250 mcg intravesical, 2 h, read-out: Plasma concentration of RTX) of 0.0597 ng/mL, a concentration at 4 h (male, dog, plasma, other: intravesical instillation, 250 mcg, male dogs 1003, 1005 individual, 250 mcg intravesical, 4 h, read-out: Plasma concentration of RTX) of 0 ng/mL and a concentration at 6 h (male, dog, plasma, other: intravesical instillation, 250 mcg, male dogs 1003, 1005 individual, 250 mcg intravesical, 6 h, read-out: Plasma concentration of RTX) of 0 ng/mL. For the same compound, the concentration at 12 h (male, dog, plasma, other: intravesical instillation, 250 mcg, male dogs 1003, 1005 individual, 250 mcg intravesical, 12 h, read-out: Plasma concentration of RTX) was 0 ng/mL, the concentration at 24 h (male, dog, plasma, other: intravesical instillation, 250 mcg, male dogs 1003, 1005 individual, 250 mcg intravesical, 24 h, read-out: Plasma concentration of RTX) was 0 ng/mL and the concentration at 36 h (male, dog, plasma, other: intravesical instillation, 250 mcg, male dogs 1003, 1005 individual, 250 mcg intravesical, 36 h, read-out: Plasma concentration of RTX) was 0 ng/mL. It also gave a concentration at 48 h (male, dog, plasma, other: intravesical instillation, 250 mcg, male dogs 1003, 1005 individual, 250 mcg intravesical, 48 h, read-out: Plasma concentration of RTX) of 0 ng/mL, a concentration at 60 h (male, dog, plasma, other: intravesical instillation, 250 mcg, male dogs 1003, 1005 individual, 250 mcg intravesical, 60 h, read-out: Plasma concentration of RTX) of 0 ng/mL and a concentration at 72 h (male, dog, plasma, other: intravesical instillation, 250 mcg, male dogs 1003, 1005 individual, 250 mcg intravesical, 72 h, read-out: Plasma concentration of RTX) of 0 ng/mL. The concentration at 0.5 h (male, dog, plasma, other: intravesical instillation, 250 mcg, male dogs, 250 mcg intravesical, 0.5 h, read-out: Plasma concentration of RTX, Mean) was 0.349 ng/mL, the concentration at 1 h (male, dog, plasma, other: intravesical instillation, 250 mcg, male dogs, 250 mcg intravesical, 1 h, read-out: Plasma concentration of RTX, Mean) was 0.208 ng/mL and the concentration at 2 h (male, dog, plasma, other: intravesical instillation, 250 mcg, male dogs, 250 mcg intravesical, 2 h, read-out: Plasma concentration of RTX, Mean) was 0.0615 ng/mL. For the same compound, the concentration at 4 h (male, dog, plasma, other: intravesical instillation, 250 mcg, male dogs, 250 mcg intravesical, 4 h, read-out: Plasma concentration of RTX, Mean) was 0 ng/mL, the concentration at 6 h (male, dog, plasma, other: intravesical instillation, 250 mcg, male dogs, 250 mcg intravesical, 6 h, read-out: Plasma concentration of RTX, Mean) was 0 ng/mL and the concentration at 12 h (male, dog, plasma, other: intravesical instillation, 250 mcg, male dogs, 250 mcg intravesical, 12 h, read-out: Plasma concentration of RTX, Mean) was 0 ng/mL. It also gave a concentration at 24 h (male, dog, plasma, other: intravesical instillation, 250 mcg, male dogs, 250 mcg intravesical, 24 h, read-out: Plasma concentration of RTX, Mean) of 0 ng/mL, a concentration at 36 h (male, dog, plasma, other: intravesical instillation, 250 mcg, male dogs, 250 mcg intravesical, 36 h, read-out: Plasma concentration of RTX, Mean) of 0 ng/mL and a concentration at 48 h (male, dog, plasma, other: intravesical instillation, 250 mcg, male dogs, 250 mcg intravesical, 48 h, read-out: Plasma concentration of RTX, Mean) of 0 ng/mL. The concentration at 60 h (male, dog, plasma, other: intravesical instillation, 250 mcg, male dogs, 250 mcg intravesical, 60 h, read-out: Plasma concentration of RTX, Mean) was 0 ng/mL and the concentration at 72 h (male, dog, plasma, other: intravesical instillation, 250 mcg, male dogs, 250 mcg intravesical, 72 h, read-out: Plasma concentration of RTX, Mean) was 0 ng/mL.
